Assays:
[1] = system: A375 melanoma cells (B-Raf V600E); experiment: A375 cell growth inhibition (ATPlite); type: cell-based; conditions: Homo sapiens, A-375, 72 h; A375, 3 days incubation
Procedure, shortened: (§1)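 Cells plated overnight, then exposed 3 days at 37° C to 8-point 1:3 compound dilutions topping at 10 μM final. Viability read as ATPlite luminescence, proportional to cell number; IC50 from luminescence versus concentration.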

[2] = system: COLO205 colon adenocarcinoma cells (B-Raf V600E); experiment: COLO205 cell growth inhibition (ATPlite); type: cell-based; conditions: Homo sapiens, COLO 205, 72 h; COLO205, 3 days incubation
Procedure, shortened: as §1

CYP1A2 = target: T1, CYP1A2 (Homo sapiens, UniProt P05177); experiment: CYP1A2 inhibition (fluorescent substrate); type: in vitro ADME; conditions: CYP1A2, CEC substrate; read-out: Cyp IC50 1A2
T1 sequence (P05177 1-516): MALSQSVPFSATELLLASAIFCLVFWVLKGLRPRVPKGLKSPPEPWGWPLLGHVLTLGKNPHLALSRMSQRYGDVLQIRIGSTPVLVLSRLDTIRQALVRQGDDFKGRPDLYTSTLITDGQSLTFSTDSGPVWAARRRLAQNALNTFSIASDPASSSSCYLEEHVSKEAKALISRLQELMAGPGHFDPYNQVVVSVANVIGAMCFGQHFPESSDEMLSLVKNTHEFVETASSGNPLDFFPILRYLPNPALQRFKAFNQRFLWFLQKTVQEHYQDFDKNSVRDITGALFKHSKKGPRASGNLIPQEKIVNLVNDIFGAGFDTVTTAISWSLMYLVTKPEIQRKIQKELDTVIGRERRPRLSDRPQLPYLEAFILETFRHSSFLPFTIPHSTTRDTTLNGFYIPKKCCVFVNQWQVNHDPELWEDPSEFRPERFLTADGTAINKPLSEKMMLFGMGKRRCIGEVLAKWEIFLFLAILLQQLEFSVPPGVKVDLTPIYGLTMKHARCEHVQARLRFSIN
Protocol: (§2) CYP (Cytochrome P450) enzymes are the major drug metabolizing enzymes present in the liver. The inhibition of CYP enzyme activity (IC50) for each of CYP1A2, CYP2C19, CYP2C9, CYP2D6, CYP3A4(BFC) and CYP3A4(BQ) is determined for compounds, where inhibition of metabolism of a known substrate leads to a decrease in the fluorescence of the metabolized product. The fluorescence of the product is monitored as a function of compound concentration.
(§3) Compounds are dissolved in dimethyl sulfoxide to a concentration of 100 mM. These are diluted 1 μL into 82 μL of acetonitrile. […] These are then serially diluted 1:1 (160 μL to 160 μL co-factor mix) for a total of 10 points. A 10 μL aliquot of this final mixture is dispensed into 384 well assay plates and incubated for 10 minutes at 37° C. […] Assay plates are incubated at 37° C. […] The signal versus compound concentration is used to determine the IC50. The enzymes and substrates for this assay are obtained from BD Biosciences.

CYP2C19 = CYP2C19 (Homo sapiens, UniProt P33261); experiment: CYP2C19 inhibition (fluorescent substrate); type: in vitro ADME; conditions: CYP2C19, CEC substrate; read-out: Cyp IC50 2C19
Protocol: as §2, §3

CYP2D6 = CYP2D6 (Homo sapiens, UniProt P10635); experiment: CYP2D6 inhibition (fluorescent substrate); type: in vitro ADME; conditions: CYP2D6, AMMC substrate; read-out: Cyp IC50 2D6
Protocol: as §2, §3

Sequence of CYP2D6 (P10635 whole entry): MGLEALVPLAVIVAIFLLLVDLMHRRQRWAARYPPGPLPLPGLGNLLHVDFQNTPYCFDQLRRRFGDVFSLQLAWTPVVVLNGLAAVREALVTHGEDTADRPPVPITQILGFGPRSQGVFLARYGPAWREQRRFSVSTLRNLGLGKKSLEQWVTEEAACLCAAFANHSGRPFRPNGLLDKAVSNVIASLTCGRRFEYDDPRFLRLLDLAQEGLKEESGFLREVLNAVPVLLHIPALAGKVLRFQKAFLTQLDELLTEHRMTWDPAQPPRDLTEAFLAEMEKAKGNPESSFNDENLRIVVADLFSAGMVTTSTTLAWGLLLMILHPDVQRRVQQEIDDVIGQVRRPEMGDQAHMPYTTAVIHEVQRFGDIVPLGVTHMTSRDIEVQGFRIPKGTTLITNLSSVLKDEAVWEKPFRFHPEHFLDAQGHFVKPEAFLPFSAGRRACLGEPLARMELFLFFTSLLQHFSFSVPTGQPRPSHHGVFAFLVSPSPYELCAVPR
Sequence of CYP2C19 (P33261 whole entry): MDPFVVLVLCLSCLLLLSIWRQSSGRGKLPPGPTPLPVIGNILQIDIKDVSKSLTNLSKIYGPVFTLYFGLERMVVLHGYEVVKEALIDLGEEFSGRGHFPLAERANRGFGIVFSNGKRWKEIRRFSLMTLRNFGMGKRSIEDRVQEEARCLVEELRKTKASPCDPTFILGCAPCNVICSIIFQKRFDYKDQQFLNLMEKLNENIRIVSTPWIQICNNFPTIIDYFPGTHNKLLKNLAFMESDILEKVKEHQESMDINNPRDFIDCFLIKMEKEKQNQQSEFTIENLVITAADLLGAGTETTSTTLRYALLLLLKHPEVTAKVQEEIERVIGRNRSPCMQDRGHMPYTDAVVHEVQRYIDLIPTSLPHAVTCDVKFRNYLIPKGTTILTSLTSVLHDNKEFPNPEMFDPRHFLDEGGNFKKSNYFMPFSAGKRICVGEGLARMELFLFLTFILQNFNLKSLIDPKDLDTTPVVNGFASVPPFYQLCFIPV

| Compound | IC50 [1] [µM] | IC50 [2] [µM] | IC50 (CYP1A2) [µM] | IC50 (CYP2C19) [µM] | IC50 (CYP2D6) [µM] |
| --- | --- | --- | --- | --- | --- |
| O=C(c1c(F)ccc(NS(=O)(=O)c2cc(F)ccc2F)c1F)c1c[nH]c2ncc(Cl)cc12 [P-2002, N-[3-(5-Chloro-1H-pyrrolo[2,3-b]pyridine-3-carbonyl)-2,4-difluoro-phenyl]-2,5-difluoro-benzenesulfonamide] | < 1 | < 1 | > 10 | 5 to 10 | > 10 |
| O=C(c1c(F)ccc(NS(=O)(=O)c2c(F)cccc2F)c1F)c1c[nH]c2ncc(Cl)cc12 [P-2003, N-[3-(5-Chloro-1H-pyrrolo[2,3-b]pyridine-3-carbonyl)-2,4-difluoro-phenyl]-2,6-difluoro-benzenesulfonamide] | < 1 | < 5 | > 10 | > 10 | > 10 |
| COc1cnc2[nH]cc(C(=O)c3c(F)ccc(NS(=O)(=O)c4ccccc4F)c3F)c2c1 [P-2009, N-[2,4-Difluoro-3-(5-methoxy-1H-pyrrolo[2,3-b]pyridine-3-carbonyl)-phenyl]-2-fluoro-benzenesulfonamide] | < 1 | < 5 | > 10 | > 10 | > 10 |
| COc1cnc2[nH]cc(C(=O)c3c(F)ccc(NS(=O)(=O)c4cc(F)ccc4F)c3F)c2c1 [P-2010, N-[2,4-Difluoro-3-(5-methoxy-1H-pyrrolo[2,3-b]pyridine-3-carbonyl)-phenyl]-2,5-difluoro-benzenesulfonamide] | < 1 | < 1 | > 10 | > 10 | > 10 |
| N#Cc1cnc2[nH]cc(C(=O)c3c(F)ccc(NS(=O)(=O)c4ccccc4F)c3F)c2c1 [P-2011, N-[3-(5-Cyano-1H-pyrrolo[2,3-b]pyridine-3-carbonyl)-2,4-difluoro-phenyl]-2-fluoro-benzenesulfonamide] | < 1 | < 1 | > 10 | > 10 | > 10 |
| N#Cc1ccnc2[nH]cc(C(=O)c3c(F)ccc(NS(=O)(=O)c4ccccc4F)c3F)c12 [P-2020, N-[3-(4-Cyano-1H-pyrrolo[2,3-b]pyridine-3-carbonyl)-2,4-difluoro-phenyl]-2-fluoro-benzenesulfonamide] | < 5 |  | > 10 | > 10 | > 10 |
| N#Cc1ccnc2[nH]cc(C(=O)c3c(F)ccc(NS(=O)(=O)c4c(F)cccc4F)c3F)c12 [P-2037, N-[3-(4-Cyano-1H-pyrrolo[2,3-b]pyridine-3-carbonyl)-2,4-difluoro-phenyl]-2,6-difluoro-benzenesulfonamide] | < 5 |  | > 10 | > 10 | > 10 |
| N#Cc1cnc2[nH]cc(C(=O)c3cccc(NS(=O)(=O)c4ccccc4F)c3F)c2c1 [P-2051, N-[3-(5-Cyano-1H-pyrrolo[2,3-b]pyridine-3-carbonyl)-2-fluoro-phenyl]-2-fluoro-benzenesulfonamide] | < 1 |  | > 10 | > 10 | > 10 |
| N#Cc1cnc2[nH]cc(C(=O)c3cccc(NS(=O)(=O)c4c(F)cccc4F)c3F)c2c1 [P-2054, N-[3-(5-Cyano-1H-pyrrolo[2,3-b]pyridine-3-carbonyl)-2-fluoro-phenyl]-2,6-difluoro-benzenesulfonamide] | < 5 |  | > 10 | > 10 | > 10 |
| N#Cc1ccnc2[nH]cc(C(=O)c3c(F)ccc(NS(=O)(=O)c4cccnc4)c3F)c12 [P-2077, Pyridine-3-sulfonic acid [3-(4-cyano-1H-pyrrolo[2,3-b]pyridine-3-carbonyl)-2,4-difluoro-phenyl]-amide] | < 10 |  | > 10 | > 10 | > 10 |
| CCCS(=O)(=O)Nc1ccc(F)c(C(=O)c2c[nH]c3ncc(-c4ccc(C(=O)NC)nc4)cc23)c1F [P-2180, 5-{3-[2,6-Difluoro-3-(propane-1-sulfonylamino)-benzoyl]-1H-pyrrolo[2,3-b]pyridin-5-yl}-pyridine-2-carboxylic acid methylamide] | < 1 |  | > 10 | 5 to 10 | > 10 |
| CCCS(=O)(=O)Nc1ccc(F)c(C(=O)c2c[nH]c3ncc(-c4ccc(C(=O)NC5CC5)nc4)cc23)c1F [P-2181, 5-{3-[2,6-Difluoro-3-(propane-1-sulfonylamino)-benzoyl]-1H-pyrrolo[2,3-b]pyridin-5-yl}-pyridine-2-carboxylic acid cyclopropylamide] | < 1 |  | > 10 | > 10 | > 10 |
| CCCS(=O)(=O)Nc1ccc(F)c(C(=O)c2c[nH]c3ncc(-c4ccc(OC)nc4OC)cc23)c1F [P-2184, Propane-1-sulfonic acid {3-[5-(2,6-dimethoxy-pyridin-3-yl)-1H-pyrrolo[2,3-b]pyridine-3-carbonyl]-2,4-difluoro-phenyl}-amide] | < 1 |  | > 10 | > 10 | > 10 |
| CCCS(=O)(=O)Nc1ccc(F)c(C(=O)c2c[nH]c3ncc(-c4cncc(S(C)(=O)=O)c4)cc23)c1F [P-2188, Propane-1-sulfonic acid {2,4-difluoro-3-[5-(5-methanesulfonyl-pyridin-3-yl)-1H-pyrrolo[2,3-b]pyridine-3-carbonyl]-phenyl}-amide] | < 10 |  | > 10 | > 10 | > 10 |
| CCCS(=O)(=O)Nc1ccc(F)c(C(=O)c2c[nH]c3ncc(-c4ccnc(F)c4)cc23)c1F [P-2192, Propane-1-sulfonic acid {2,4-difluoro-3-[5-(2-fluoro-pyridin-4-yl)-1H-pyrrolo[2,3-b]pyridine-3-carbonyl]-phenyl}-amide] | < 1 |  | > 10 | > 10 | > 10 |
| CCCS(=O)(=O)Nc1ccc(F)c(C(=O)c2c[nH]c3ncc(-c4ccc(S(N)(=O)=O)cc4)cc23)c1F [P-2194, 4-{3-[2,6-Difluoro-3-(propane-1-sulfonylamino)-benzoyl]-1H-pyrrolo[2,3-b]pyridin-5-yl}-benzenesulfonamide] | < 5 |  | > 10 | > 10 | > 10 |
| CCCS(=O)(=O)Nc1ccc(F)c(C(=O)c2c[nH]c3ncc(-c4cnc(N5CCOCC5)nc4)cc23)c1F [P-2197, Propane-1-sulfonic acid {2,4-difluoro-3-[5-(2-morpholin-4-yl-pyrimidin-5-yl)-1H-pyrrolo[2,3-b]pyridine-3-carbonyl]-phenyl}-amide] | < 1 |  | > 10 | > 10 | > 10 |
| CCCS(=O)(=O)Nc1ccc(F)c(C(=O)c2c[nH]c3ncc(-c4cnc(OC)nc4OC)cc23)c1F [P-2199, Propane-1-sulfonic acid {3-[5-(2,4-dimethoxy-pyrimidin-5-yl)-1H-pyrrolo[2,3-b]pyridine-3-carbonyl]-2,4-difluoro-phenyl}-amide] | < 5 |  | > 10 | > 10 | > 10 |
| CCCS(=O)(=O)Nc1ccc(F)c(C(=O)c2c[nH]c3ncc(-c4ccc(S(=O)(=O)CC)cc4)cc23)c1F [P-2218, Propane-1-sulfonic acid {3-[5-(4-ethanesulfonyl-phenyl)-1H-pyrrolo[2,3-b]pyridine-3-carbonyl]-2,4-difluoro-phenyl}-amide] | < 0.1 | < 0.1 | > 10 |  | > 10 |
| CCCS(=O)(=O)Nc1ccc(F)c(C(=O)c2c[nH]c3ncc(-c4cccc(S(C)(=O)=O)c4)cc23)c1F [P-2228, Propane-1-sulfonic acid {2,4-difluoro-3-[5-(3-methanesulfonyl-phenyl)-1H-pyrrolo[2,3-b]pyridine-3-carbonyl]-phenyl}-amide] | < 1 |  | > 10 | > 10 | > 10 |

Reference: patent US8198273B2, “Compounds and methods for kinase modulation, and indications therefor” (Plexxikon Inc., priority 2009, dated 2012)
